Converted amounts (≈) assume the structure as drawn.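 Step 1: Grow cells in 96-well plates. Step 2: Expose to compound for 48 hours at 5 concentrations. Step 3: Interpolate endpoints linearly; if unreached, use highest concentration. The concentration for 50% growth inhibition is given as GI50. TGI denotes the concentration required for complete inhibition of growth.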
Columns and labels:
Assay in all cases: DTP human tumour cell line panel, 48 h
[1] = test system: SK-MEL-2 melanoma
[2] = test system: SF-295 CNS
[3] = test system: NCI-H522 lung
[4] = test system: TK-10 renal
[5] = test system: MDA-MB-435
[6] = test system: K-562 leukemia
[7] = test system: HCC-2998 colon
[8] = test system: MDA-MB-231 breast
[9] = test system: ACHN renal
[10] = test system: CAKI-1 renal
[11] = test system: A549 NSCLC
[12] = test system: NCI/ADR-RES ovarian
[13] = test system: SW-620 colon
[14] = test system: HL-60(TB) leukemia
[15] = test system: LOX IMVI melanoma
[16] = test system: BT-549 breast
[17] = test system: PC-3 prostate
[18] = test system: NCI-H226 lung
[19] = test system: HCT-116 colon
[20] = test system: KM12 colon
[21] = test system: UO-31 renal
[22] = test system: A498 renal
[23] = test system: OVCAR-8 ovarian
[24] = test system: MCF7 breast
[25] = test system: SF-539 CNS
[26] = test system: DU-145 prostate
[27] = test system: COLO 205 colon
[28] = test system: SN12C renal
[29] = test system: SF-268 CNS
[30] = test system: HCT-15 colon
[31] = test system: CCRF-CEM leukemia
[32] = test system: 786-0 renal
[33] = test system: OVCAR-3 ovarian
[34] = test system: NCI-H460 lung
[35] = test system: RXF 393 renal
[36] = test system: NCI-H23 lung
[37] = test system: U251 CNS
[38] = test system: UACC-62 melanoma
[39] = test system: MOLT-4 leukemia
[40] = test system: OVCAR-5 ovarian
[41] = test system: HS 578T breast
[42] = test system: RPMI-8226 leukemia
[43] = test system: UACC-257 melanoma
[44] = test system: MALME-3M melanoma
[45] = test system: HOP-62 NSCLC
[46] = test system: SR leukemia
[47] = test system: M14 melanoma
[48] = test system: SK-MEL-5 melanoma
[49] = test system: IGROV1 ovarian
[50] = test system: HT29 colon
[51] = test system: SK-MEL-28 melanoma
[52] = test system: HOP-92 NSCLC
[53] = test system: SNB-19 CNS
[54] = test system: T-47D breast
[55] = test system: OVCAR-4 ovarian
[56] = test system: SNB-75 CNS
[57] = test system: EKVX NSCLC
[58] = test system: SK-OV-3 ovarian

Cn1c2ccccc2c2c(=O)n(CCCC(=O)NCC(=O)OC(=NC3CCCCC3)NC3CCCCC3)c3c(-c4ccccc4)nnn3c21
GI50 [1]: 33.1 µM
TGI [1]: > 100 µM
GI50 [2]: > 100 µM
TGI [2]: > 100 µM
GI50 [3]: 15.9 µM
TGI [3]: 80.4 µM
GI50 [4]: > 100 µM
TGI [4]: > 100 µM
GI50 [5]: 25.3 µM
TGI [5]: > 100 µM
GI50 [6]: 23 µM
TGI [6]: > 100 µM
GI50 [7]: 10.2 µM
TGI [7]: 26.8 µM
GI50 [8]: 12.4 µM
TGI [8]: 37.7 µM
GI50 [9]: 26.3 µM
TGI [9]: > 100 µM
GI50 [10]: 32.1 µM
TGI [10]: > 100 µM
GI50 [11]: 38 µM
TGI [11]: > 100 µM
GI50 [12]: 15.6 µM
TGI [12]: 33.5 µM
GI50 [13]: 3.76 µM
TGI [13]: > 100 µM
GI50 [14]: 2.86 µM
TGI [14]: 8.31 µM
GI50 [15]: 13.1 µM
TGI [15]: 97.3 µM
GI50 [16]: 27 µM
TGI [16]: > 100 µM
GI50 [17]: 22.7 µM
TGI [17]: > 100 µM
GI50 [18]: 40 µM
TGI [18]: > 100 µM
GI50 [19]: 14.3 µM
TGI [19]: 42.7 µM
GI50 [20]: 31.3 µM
TGI [20]: > 100 µM
GI50 [21]: 31.3 µM
TGI [21]: > 100 µM
GI50 [22]: 30.6 µM
TGI [22]: > 100 µM
GI50 [23]: 7.37 µM
TGI [23]: > 100 µM
GI50 [24]: 3.62 µM
TGI [24]: > 100 µM
GI50 [25]: 19.9 µM
TGI [25]: 58.1 µM
GI50 [26]: 18.4 µM
TGI [26]: > 100 µM
GI50 [27]: 2.81 µM
TGI [27]: > 100 µM
GI50 [28]: 19.5 µM
TGI [28]: 50.7 µM
GI50 [29]: 15 µM
TGI [29]: > 100 µM
GI50 [30]: 10.8 µM
TGI [30]: > 100 µM
GI50 [31]: 8.36 µM
TGI [31]: 57.7 µM
GI50 [32]: 18.5 µM
TGI [32]: 45.1 µM
GI50 [33]: 19.6 µM
TGI [33]: 96.2 µM
GI50 [34]: 32 µM
TGI [34]: > 100 µM
GI50 [35]: 11.1 µM
TGI [35]: 36.9 µM
GI50 [36]: 15.6 µM
TGI [36]: 33 µM
GI50 [37]: 12.4 µM
TGI [37]: 38.3 µM
GI50 [38]: 25.8 µM
TGI [38]: > 100 µM
GI50 [39]: 14.5 µM
TGI [39]: > 100 µM
GI50 [40]: 15.3 µM
TGI [40]: 32.5 µM
GI50 [41]: 9.43 µM
TGI [41]: > 100 µM
GI50 [42]: 4.26 µM
TGI [42]: 21.2 µM
GI50 [43]: 66.4 µM
TGI [43]: > 100 µM
GI50 [44]: 47.2 µM
TGI [44]: > 100 µM
GI50 [45]: 15.3 µM
TGI [45]: 36.6 µM
GI50 [46]: 3.04 µM
TGI [46]: 5.09 µM
GI50 [47]: 31.2 µM
TGI [47]: > 100 µM
GI50 [48]: 5.98 µM
TGI [48]: 31.6 µM
GI50 [49]: 2.84 µM
TGI [49]: 33 µM

OCCN(CO)CN(CN(CO)CCO)c1nc(N(CN(CO)CCO)CN(CO)CCO)nc(N(CN(CO)CCO)CN(CO)CCO)n1
GI50 [50]: 0.911 ng/mL (≈ 1.22 nM)
TGI [50]: 15.2 ng/mL (≈ 20.4 nM)
GI50 [2]: 1.39 ng/mL
TGI [2]: 3.94 ng/mL
GI50 [6]: 0.559 ng/mL
TGI [6]: 10.6 ng/mL
GI50 [51]: 1.05 ng/mL (≈ 1.4 nM)
TGI [51]: 1.88 ng/mL (≈ 2.52 nM)
GI50 [8]: 1.01 ng/mL
TGI [8]: 3.23 ng/mL
GI50 [9]: 1.73 ng/mL
TGI [9]: 6.27 ng/mL
GI50 [11]: 1.81 ng/mL
TGI [11]: 131 ng/mL
GI50 [13]: 0.55 ng/mL
TGI [13]: 6.27 ng/mL
GI50 [14]: 0.55 ng/mL
TGI [14]: 0.859 ng/mL
GI50 [52]: 1.56 ng/mL (≈ 2.09 nM)
TGI [52]: 3.6 ng/mL (≈ 4.84 nM)
GI50 [17]: 1.48 ng/mL
TGI [17]: 4.46 ng/mL
GI50 [53]: 2.32 ng/mL (≈ 3.11 nM)
TGI [53]: 744 ng/mL (≈ 999 nM)
GI50 [18]: 1.25 ng/mL
TGI [18]: 2.72 ng/mL
GI50 [54]: 1.09 ng/mL (≈ 1.46 nM)
TGI [54]: 3.21 ng/mL (≈ 4.31 nM)
GI50 [20]: 1.21 ng/mL
TGI [20]: 2.8 ng/mL
GI50 [23]: 1.54 ng/mL
TGI [23]: 5500 ng/mL
GI50 [24]: 0.55 ng/mL
TGI [24]: 0.901 ng/mL
GI50 [25]: 1.42 ng/mL
TGI [25]: 3.91 ng/mL
GI50 [26]: 1.9 ng/mL
TGI [26]: 78.3 ng/mL
GI50 [28]: 1.49 ng/mL
TGI [28]: 6.06 ng/mL
GI50 [29]: 1.35 ng/mL
TGI [29]: 2.93 ng/mL
GI50 [31]: 0.55 ng/mL
TGI [31]: 2.52 ng/mL
GI50 [32]: 1.49 ng/mL
TGI [32]: 4.6 ng/mL
GI50 [55]: 1.7 ng/mL (≈ 2.28 nM)
TGI [55]: 4.8 ng/mL (≈ 6.44 nM)
GI50 [34]: 1.17 ng/mL
TGI [34]: 2.53 ng/mL
GI50 [56]: 0.723 ng/mL (≈ 0.971 nM)
TGI [56]: 2.41 ng/mL (≈ 3.24 nM)
GI50 [57]: 1.42 ng/mL (≈ 1.9 nM)
TGI [57]: 5.03 ng/mL (≈ 6.75 nM)
GI50 [36]: 1.57 ng/mL
TGI [36]: 5.24 ng/mL
GI50 [38]: 1.26 ng/mL
TGI [38]: 3.02 ng/mL
GI50 [39]: 1.51 ng/mL
TGI [39]: 4.49 ng/mL
GI50 [40]: 2.02 ng/mL
TGI [40]: 76.8 ng/mL
GI50 [41]: 1.74 ng/mL
TGI [41]: 45.1 ng/mL
GI50 [42]: 0.55 ng/mL
TGI [42]: 0.55 ng/mL
GI50 [43]: 1.42 ng/mL
TGI [43]: 3.21 ng/mL
GI50 [58]: 1.26 ng/mL (≈ 1.69 nM)
TGI [58]: 4.21 ng/mL (≈ 5.65 nM)
GI50 [45]: 1.47 ng/mL
TGI [45]: 4.38 ng/mL
GI50 [46]: 0.742 ng/mL
TGI [46]: 2.62 ng/mL
GI50 [47]: 1.21 ng/mL
TGI [47]: 2.91 ng/mL
GI50 [49]: 1.75 ng/mL
TGI [49]: 5.46 ng/mL

Source: PubChem BioAssay (NCI)
